Data reported in BindingDB's records for doi:10.1016/j.ejmech.2017.02.016 (De Montfort University, 2017).

Legend:
[1] = Inhibition of human CYP1B1 expressed in HEK293 cells assessed as potentiation of cisplatin-induced cytotoxicity by measuring cisplatin EC50 at 0.016 uM by MTT assay (Rvb = 61 +/- 8 uM)
[2] = Inhibition of human CYP1B1 expressed in human A2780 cells assessed as potentiation of cisplatin-induced cytotoxicity by measuring cisplatin EC50 at 0.016 uM by MTT assay (Rvb = 40 +/- 4.9 uM)
[3] = Inhibition of human CYP1B1 expressed in HEK293 cells assessed as potentiation of cisplatin-induced cytotoxicity by measuring cisplatin EC50 at 0.018 uM by MTT assay (Rvb = 61 +/- 8 uM)
[4] = Inhibition of human CYP1B1 expressed in human A2780 cells assessed as potentiation of cisplatin-induced cytotoxicity by measuring cisplatin EC50 at 0.018 uM by MTT assay (Rvb = 40 +/- 4.9 uM)
[5] = Inhibition of human CYP1B1 expressed in HEK293 cells assessed as potentiation of cisplatin-induced cytotoxicity by measuring cisplatin EC50 at 0.02 uM by MTT assay (Rvb = 61 +/- 8 uM)
[6] = Inhibition of human CYP1B1 expressed in human A2780 cells assessed as potentiation of cisplatin-induced cytotoxicity by measuring cisplatin EC50 at 0.02 uM by MTT assay (Rvb = 40 +/- 4.9 uM)

Work on `O=c1cc(-c2ccccc2)oc2c1ccc1ccccc12` yielded an EC50 [1] of 40 µM and an EC50 [2] of 35 µM.
`COc1ccc2cc(C(=O)/C=C/c3cccnc3)ccc2c1` showed an EC50 [3] of 8.3 µM and an EC50 [4] of 3.3 µM.
Compound `O=C(/C=C/c1ccc2ccccc2c1)c1cccnc1` has an EC50 [5] of 1 µM and an EC50 [6] of 0.5 µM.
